Experiments:
Assay type in all cases: cell-based, mouse
C/EBPα [1] = experiment: Western blot, C/EBPα protein expression in 3T3-L1 adipocytes; conditions: 40 μM
[2] = tested on: 3T3-L1 preadipocytes [3T3-L1 전구 지방세포]; experiment: MTT assay, cytotoxicity in 3T3-L1 preadipocytes; conditions: 3T3-L1 cells, 4 or 40 μM, 24 or 48 h
[3] = tested on: 3T3-L1 adipocytes [3T3-L1 지방세포]; experiment: Triglyceride (TG) quantification in 3T3-L1 cells (colorimetric kit)
[4] = tested on: 3T3-L1 adipocytes [3T3-L1 지방세포]; experiment: Oil Red O staining: differentiation and lipid accumulation in 3T3-L1 cells
adiponectin [아디포넥틴] [5] = experiment: RT-PCR, adiponectin mRNA expression in 3T3-L1 cells; conditions: 40 μM
adiponectin [아디포넥틴] [6] = experiment: Western blot, adiponectin protein expression in 3T3-L1 adipocytes; conditions: 40 μM
PPARγ [7] = experiment: RT-PCR, PPARγ mRNA expression in 3T3-L1 cells; conditions: 40 μM
C/EBPα [8] = experiment: RT-PCR, C/EBPα mRNA expression in 3T3-L1 cells; conditions: 40 μM
PPARγ [9] = experiment: Western blot, PPARγ protein expression in 3T3-L1 adipocytes; conditions: 40 μM

In the case of `C[C@@]12C=Cc3occc3[C@H]1CC[C@@]13C[C@@H](CC[C@H]12)[C@@](O)(CO)C3` [Kahweol], the C/EBPα protein expression (C/EBPα [1]) is reported as “억제됨”, the cytotoxic effect [2] is reported as “세포 독성 효과를 보이지 않았다” and the TG formation [3] is reported as “억제함”. For the same compound, the “TG formation inhibitory activity compared with positive control” value ([3]; 40 μM) was “양성 대조군 보다 우수한”, the inhibition at 40 µM ([3]; Mus musculus, 40 μM, read-out: decrease of intracellular TG level) was 43.3% and the “differentiation of 3T3-L1 cells” value ([4]; 40 μM, 8 days) was “분화가 억제됨”. The cell morphology ([4]; 40 μM, 8 days, similar to preadipocytes (Fig. 3A)) was “소형 스핀들-형상 형태”, the “lipid accumulation inhibitory activity compared with positive control” value ([4]; 3T3-L1 cells, 40 μM) was “양성 대조군 보다 우수한” and the intracellular lipid accumulation ([4]; 3T3-L1 cells, Oil Red O) was “억제함”. The “adiponectin mRNA level” value (adiponectin [아디포넥틴] [5]) was “감소”, the adiponectin protein expression (adiponectin [아디포넥틴] [6]) was “억제됨” and the “PPARγ mRNA level” value (PPARγ [7]) was “현저히 감소”. For the same compound, the “C/EBPα mRNA level” value (C/EBPα [8]) was “현저히 감소” and the PPARγ protein expression (PPARγ [9]) was “억제됨”.

Source: patent KR20180000079A, “Kahweol을 포함하는 항비만 조성물” (경북대학교 산학협력단, priority 2016, dated 2018)
